Assay results: the OPERA property sets (Mansouri et al. 2018)

Details: for log10 BCF / log10 biotransformation half-life (days): fish

| SMILES | boiling point [°C] | melting point [°C] | further results |
| --- | --- | --- | --- |
| N#Cc1c(F)c(F)c(F)c(F)c1F | 162 | 2.4 | – |
| Oc1cccc(-c2ccccc2)c1 | – | 78 | – |
| CCCCCCOC(=O)CCC | 208 | -78 | – |
| C[Si](C)(C)O[Si](C)(C)O[Si](C)(C)O[Si](C)(C)O[Si](C)(C)O[Si](C)(C)O[Si](C)(C)O[Si](C)(C)O[Si](C)(C)C | 308 | – | – |
| O=C(O)[C@H]1CCCC[C@H]1C(=O)OC(=O)[C@H]1CCCC[C@H]1C(=O)O | – | – | ready biodegradability: not readily biodegradable |
| O=C(O)C(F)(F)C(F)(F)C(F)(F)C(F)(F)C(=O)O | – | 134 | – |
| Nc1ccccc1C=O | – | 39 | – |
| C=C1C[C@@H]1C[C@H](N)C(=O)O | – | 282 | – |
| C=CCSC#N | 161 | – | – |
| OCC(Cl)(Cl)Cl | 152 | 19 | – |
| CC(=O)C=CC=Cc1ccccc1 | – | 68 | – |
| O=C(O)CCCCCCCCCCCC(=O)O | – | 111 | – |
| O=C1OC(=O)c2c(Cl)c(Cl)c(Cl)c(Cl)c21 | – | 254 | ready biodegradability: not readily biodegradable |
| F[Si](F)(F)c1ccccc1 | 102 | -18 | – |
| O=[N+]([O-])c1ccc2cccnc2c1 | – | 132 | – |
| CC(C)(Oc1ccc(C2CC2(Cl)Cl)cc1)C(=O)O (centres undefined) | – | 115 | – |
| COc1ccc(NS(=O)(=O)c2ccc(N)cc2)nn1 | – | 182 | – |
| CCCCNCC(O)c1ccc(O)cc1 (centres undefined) | – | 124 | – |
| CCCCCCCF | 118 | -73 | log10 vapour pressure (mmHg): 1.26 |
| CCC(=O)CCC(C)C | 164 | – | – |
| CCCCCCCCCCCCCCCC(=O)OC | – | 30 | log10 vapour pressure (mmHg): -4.33 |
| CCC1(C)CC(=O)NC(=O)C1 | – | 126 | – |
| Oc1ccc2c(c1)CCC2 | 253 | 58 | log10 Koc (L/kg): 3.4 |
| CCOC(=O)C(C(=O)OCC)C(C(=O)OCC)C(=O)OCC | – | 77 | – |
| CCOC(=O)C1(c2cccc(O)c2)CCN(C)CC1 | – | 110 | – |

| SMILES | boiling point [°C] | melting point [°C] | further results |
| --- | --- | --- | --- |
| CC(C)(C)C(=O)OCOc1ccccc1C(N)=O | – | 95 | – |
| C/C=C/C(C)CC (centres undefined) | 87.6 | -126 | – |
| O=C(N/N=C/C=C/c1ccc([N+](=O)[O-])o1)c1ccc([N+](=O)[O-])s1 | – | 236 | – |
| N#CCc1c[nH]c2ccccc12 | – | 36 | – |
| C[Si](C)(C)CCCO | 141 | – | – |
| C=CCC(C(=O)O)C(=O)O | – | 105 | – |
| NCCCCCCN | 205 | 41.5 | log10 vapour pressure (mmHg): -0.928; ready biodegradability: readily biodegradable |
| CC(=O)Nc1ccc(C)c(NS(=O)(=O)C(F)(F)F)c1 | – | 176 | – |
| CCC(=O)Nc1nc(C)c(Cl)s1 | – | 159 | – |
| FCF | -51.6 | -136 | log10 vapour pressure (mmHg): 4.1 |
| COC(=O)C(C)O (centres undefined) | 145 | -66 | – |
| Oc1ccc(O)c(Cl)c1 | 263 | 108 | – |
| CCC1CCC(C)C1 (centres undefined) | – | – | log10 vapour pressure (mmHg): 0.799 |
| CCC[Si](C)(C)C | 89 | – | – |
| CCN(CC)CCCN | 168 | – | – |
| CCCCCCCCC(=O)OCCCCC | – | -27 | – |
| CCOc1cc(OCC)c(C(=O)CCC(=O)O)cc1OCC | – | 150 | – |
| Clc1nnc(Cl)c2ccccc12 | – | – | ready biodegradability: not readily biodegradable |
| CCCCCCCCCCCCCC(=O)CCCCCCCCCCCCC | – | 77.5 | – |
| CCCCOC(=O)c1ccccc1 | 250 | -22.4 | log10 Koc (L/kg): 2.1; log10 vapour pressure (mmHg): -2 |
| Clc1ccc(Cl)c(Oc2ccccc2)c1 | – | – | log10 vapour pressure (mmHg): -3 |
| C[C@@H]1C[C@@]2(C)[C@@H](CC[C@@H]3[C@@H]2CC[C@]2(C)[C@@H](O)CC[C@@H]32)CC1=O | – | 151 | – |
| Brc1cc(Br)c(-c2c(Br)cc(Br)cc2Br)c(Br)c1 | – | – | log10 Koc (L/kg): 4.87; log10 BCF: 4.66; log10 biotransformation half-life (days): 2.66 |
| C=CC(F)(F)C(F)(F)C(F)(F)C(F)(F)C(F)(F)C(F)(F)C(F)(F)C(F)(F)F | 150 | – | – |
| Clc1cccc(-c2c(Cl)c(Cl)c(Cl)c(Cl)c2Cl)c1Cl | – | – | log10 Henry constant (atm·m³/mol): -4.85 |

| SMILES | boiling point [°C] | melting point [°C] | further results |
| --- | --- | --- | --- |
| CCOC(=O)c1ccc2c(c1)OCO2 | 286 | 18.5 | – |
| CCOC(=O)C(F)(F)F | 61 | – | – |
| OCCCc1cccnc1 | 284 | – | – |
| OCc1ccc(Cl)cc1Cl | – | 59.5 | ready biodegradability: readily biodegradable |
| CN(C)CCC=C1c2ccccc2CCc2ccccc21 | – | 196 | – |
| O=c1oc2ccccc2c(O)c1C1CC(c2ccc(OCc3ccc(C(F)(F)F)cc3)cc2)Cc2ccccc21 (centres undefined) | – | 167 | – |
| O=S(=O)(Cl)Cc1ccccc1 | – | – | ready biodegradability: readily biodegradable |
| CCI | 72.5 | -111 | log10 Koa: 2.59; log10 vapour pressure (mmHg): 2.13 |
| C1CCCNCCC1 | – | 29 | – |
| C1CCCSCC1 | 174 | 0.5 | – |
| CCCCCCCCC=CCCCCCCCCCCCCO | – | 35 | – |
| CCCCN(CCCC)C(C(N)=O)c1ccc(OC)cc1 (centres undefined) | – | 134 | – |
| C1=CC(c2ccc(C3CC=CCC3)cc2)CCC1 (centres undefined) | – | – | ready biodegradability: not readily biodegradable |
| Cc1cc(C)cc(C(=O)N(NC(=O)c2ccccc2)C(C)(C)C)c1 | – | 206 | – |
| FC(Cl)Cl | 8.9 | -135 | log10 vapour pressure (mmHg): 3.13 |
| Oc1ccc2c(c1)Cc1ccccc1-2 | – | 168 | – |
| CC(=O)[C@H]1CC[C@H]2[C@@H]3C[C@H](C)C4=CC(=O)CC[C@]4(C)[C@H]3[C@@H](O)C[C@]12C | – | 156 | – |
| Oc1ccc(N=Nc2ccc(N=Nc3ccccc3)c3ccccc23)cc1 | – | 210 | – |
| Cc1cccc(C)c1N(Cn1cccn1)C(=O)CCl | – | 85 | log10 Henry constant (atm·m³/mol): -9.25 |
| CC(C)=C1CCCC(C)C1 (centres undefined) | 174 | – | – |
| CCCCCC(C)(C)O | 156 | -50.4 | – |
| NCc1ccccc1 | 185 | – | log10 vapour pressure (mmHg): -0.185; ready biodegradability: readily biodegradable |
| COc1ccc(C[C@H]2c3cc(OC)c(OC)cc3CCN2C)cc1O | – | 176 | – |
| C/C=C/CC(C)C | 88.1 | -124 | – |
| CCCCCS(=O)(=O)O | – | 15.9 | – |

| SMILES | boiling point [°C] | melting point [°C] | further results |
| --- | --- | --- | --- |
| COc1ccc(CCN2CCC(Nc3nc4ccccc4n3Cc3ccc(F)cc3)CC2)cc1 | – | 149 | – |
| C[C@@H]1O[C@@H]1P(=O)(O)O | – | 94 | – |
| CC(=O)C1CCc2ccccc2C1=O (centres undefined) | – | 56 | – |
| O=C(Cc1ccccc1)OC(=O)Cc1ccccc1 | – | 73.3 | – |
| Nc1ccc(C=O)cc1 | – | 71.5 | – |
| CCOc1ccccc1Cl | 210 | – | – |
| COc1cc([C@@H]2c3cc4c(cc3C(O[C@@H]3O[C@@H]5COC(c6cccs6)O[C@H]5[C@H](O)[C@H]3O)C3COC(=O)[C@@H]32)OCO4)cc(OC)c1O (some centres undefined) | – | 244 | – |
| CC(C)=CCCc1ccoc1 | 186 | – | – |
| C(=C\c1ccccc1)/c1ccccc1 | 307 | – | log10 Koa: 7.48; log10 vapour pressure (mmHg): -2.61 |
| COc1cc(CO)ccc1O | – | 115 | – |
| Cc1ccc(C(C)C)cc1 | 177 | -68.5 | log10 vapour pressure (mmHg): 0.19; ready biodegradability: readily biodegradable |
| COC(C)(C)CCCC(C)C/C=C/C(C)=C/C(=O)OC(C)C (centres undefined) | – | – | log10 vapour pressure (mmHg): -4.63 |
| COC(N)=O | 177 | 54 | – |
| O=C1C(F)=C(F)C(=O)C(F)=C1F | – | 184 | – |
| CNC(=O)O/N=C/C(C)(C)S(C)(=O)=O | – | 141 | log10 Koc (L/kg): 0.42; log10 vapour pressure (mmHg): -4.05 |
| O=C(OCCOCCOC(=O)c1ccccc1)c1ccccc1 | – | 33.5 | – |
| O=C(CO)[C@@H](O)[C@@H](O)[C@H](O)[C@H](O)CO | – | 151 | – |
| O=C(O)CCC(=O)OOC(=O)CCC(=O)O | – | 127 | – |
| O=C(c1ccccc1)c1ccccc1C(F)(F)F | – | 61 | – |
| Cc1ccc(C)c(N)c1 | 214 | 15.5 | log10 vapour pressure (mmHg): -0.824; ready biodegradability: not readily biodegradable; log10 BCF: 0.58; log10 biotransformation half-life (days): -0.99 |
| C#CCN1CC(=O)N(COC(=O)[C@@H]2[C@@H](C=C(C)C)C2(C)C)C1=O | – | – | log10 vapour pressure (mmHg): -7.87 |
| CCN(CC)Cc1cccnc1 | – | – | log10 vapour pressure (mmHg): -2.37 |
| CC(C)=CC(=O)O | 197 | 69.5 | – |
| Cc1ccc(N(CC2=NCCN2)c2cccc(O)c2)cc1 | – | 174 | – |
| Clc1ccc2c(Cl)cccc2c1Cl | – | – | log10 Koa: 7.5 |

| SMILES | boiling point [°C] | melting point [°C] | further results |
| --- | --- | --- | --- |
| CN(C)CCN(C)C | 121 | -55 | – |
| Cc1cc(O)ccc1N=Nc1ccccc1 | – | 109 | – |
| C=C1CCO[C@]2([C@H](O)[C@@](C)(O)CO)NC(=O)[C@@]1(O)NC2=O | – | 188 | – |
| Clc1cc(Cl)c(Cl)c(-c2c(Cl)c(Cl)c(Cl)c(Cl)c2Cl)c1 | – | – | log10 Henry constant (atm·m³/mol): -4.85 |
| O=C1Nc2ccc(Cl)cc2C(c2ccccc2Cl)=NC1O (centres undefined) | – | 167 | – |
| O=C(Br)CBr | 148 | – | – |
| C[Si](C)(C)c1ccccc1 | 170 | – | – |
| CCO[Si](c1ccccc1)(c1ccccc1)c1ccccc1 | 344 | 65 | – |
| C#CCCO | 129 | -63.6 | – |
| CCCC(CC)CC | 119 | – | log10 biodegradation half-life (days): 0.602; log10 vapour pressure (mmHg): 1.3 |
| Cc1cc(C)cc(C)c1 | 165 | -44.7 | log10 Henry constant (atm·m³/mol): -2.06; log10 Koc (L/kg): 2.82; log10 biodegradation half-life (days): 0.477; log10 vapour pressure (mmHg): 0.395; ready biodegradability: not readily biodegradable; log10 BCF: 2.27; log10 biotransformation half-life (days): 0.4 |
| C=CCN(CC=C)C(=O)CCl | – | – | log10 Koc (L/kg): 1.3; log10 vapour pressure (mmHg): -2.03 |
| c1ccc2c(c1)cc1ccc3cc4ccccc4c4ccc2c1c34 | – | 282 | log10 Koc (L/kg): 5.71; log10 biodegradation half-life (days): 2.47 |
| Nc1nc2c(ncn2COCCO)c(=O)[nH]1 | – | 255 | – |
| FC(F)C(F)(F)Cl | -10 | -117 | – |
| CCOCCOCCOCC | 188 | -45 | log10 vapour pressure (mmHg): -0.284 |
| Nc1ccc(Br)cc1[N+](=O)[O-] | – | 112 | – |
| CN(CCCC(=O)c1cccnc1)N=O | – | 64 | – |
| CCC(C)C1CCCCC1 (centres undefined) | 179 | – | log10 vapour pressure (mmHg): 0.37 |
| Nc1ccc(C(=O)Oc2ccccc2)c(O)c1 | – | 153 | – |
| CCCCCCC(C)O (centres undefined) | – | – | log10 Henry constant (atm·m³/mol): -3.91; log10 vapour pressure (mmHg): -0.616; ready biodegradability: readily biodegradable |
| CC=CC(=O)O | 185 | 72 | log10 vapour pressure (mmHg): -0.542 |
| CC(C)OC(=O)OC(C)C | 147 | – | – |
| Nc1ccccc1-c1ccccc1N | – | 81 | log10 vapour pressure (mmHg): -5.57 |
